Patent US7893024B2, “Enhancement of iron chelation therapy” (priority 2002, dated 2011)
“And” between values parts separate entries of the source, which are not always exact repeats. Identical values can stand only once. Counter-ions that a name gives are not always drawn.

Tests used:
ferritin [1] = target: T1, ferritin (Aquarana catesbeiana, UniProt P07229); assay: Iron release from mineralized recombinant ferritin monitored as formation of Fe(II)-bipyridyl (A522 nm), NADH/FMN reductant; format: biochemical; conditions: for increase in the initial rate of iron release: in combination with the chelator 2,2′-bipyridine
T1 construct: made in house; host or cells: E. coli BL21-DE3-PLysS, vector pET-9a
T1 sequence (P07229 2-176): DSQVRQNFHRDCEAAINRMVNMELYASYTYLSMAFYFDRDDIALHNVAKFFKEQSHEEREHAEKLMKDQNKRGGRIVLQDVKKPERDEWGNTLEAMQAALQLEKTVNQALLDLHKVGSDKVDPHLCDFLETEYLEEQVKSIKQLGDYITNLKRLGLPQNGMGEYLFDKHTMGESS
Experimental: Briefly, as described in further detail below, recombinant ferritin was expressed, isolated, and mineralized. The mineralized, recombinant ferritin was incubated with a protein unfolding reagent (e.g., urea, guanidine, or Triton X-100). Chelator and reductant was then added to the reaction, and rates of iron release were monitored by UV absorbance detection of formation of Fe(II)-bipyridyl (A522 nm/sec).
Production of recombinant ferritin. Recombinant ferritin was expressed using bullfrog sequences as the kinetic properties have been particularly favorable for study (Takagi H., et al. (1998) J. Biol. Chem. 273:18685)(18)(19)(20). Crystallographic studies of frog and human ferritins (Trikha, J., Theil, E. C. & Allewell, N. M. (1995) J Mol Biol 248, 949-67)(Hempstead, P. D., Yewdall, S. J., Fernie, A. R., Lawson, D. M., Artymiuk, P. J., Rice, D. W., Ford, G. C., & Harrison, P. M. (1997) J. Mol. Biol. 268, 424-448) show very similar structures and mechanisms (Bou-Abdallah, F., Papaefthymiou, G. C., Scheswohl, D. M., Stanga, S. D., Arosio, P. & Chasteen, N. D. (2002) Biochem J. 364, 57-63)(Hwang, J., Krebs, C., Huynh, B. H., Edmondson, D. E., Theil, E. C. & Penner-Hahn, J. E. (2000) Science 287, 122-125)(18). […] Two proteins were compared in the study: H-wild type and H-L134P, an “open” pore protein for which the crystal structure is known (Takagi H., et al. (1998) J. Biol. Chem. 273:18685). Sequences coding H-wild type and H-L134P ferritin were inserted into the vector pET-9a and expressed in E. coli BL21-DE3-PLysS (Stratagene®). The recombinant proteins were isolated as the 24-subunit assembly without Fe (<0.5/subunit) using methods previously described (20).
Mineralization of ferritin. Recombinant ferritin was mineralized by adding a freshly prepared, acidic solution of FeSO4 (to minimize oxidation and hydrolysis) to apoferritin in buffer and incubating at room temperature for 1 hour and then overnight at 4° C., to complete hydrolysis of ferric mineral precursors (18). The final solution was 2.08 μM protein with 480 Fe/protein ([…]) in 0.1 M MOPS, 0.1M NaCl, pH=7. Sterile solutions of mineralized ferritin are stable for months to years.
Measurement of iron release rates. Rates of Fe exit from ferritin (rates of dissolving the Fe biomineral) were monitored as formation of Fe(II)-bipyridyl (A522 nm/sec). The reaction was started by mixing an equal volume of mineralized ferritin with an equal volume of a solution of a NADH (5 mM), FMN (5 mM), and bipyridyl (5 mM) as first described by Jones and Walsh (21). The initial rates of iron chelation were calculated by taking the linear ascending part of the multiphasic reaction curve, averaged from 3 independent assays/protein preparations and 2-3 independent protein preparations.
Triton X-100 and Urea. One set of reactions was treated with Triton X-100 at final concentrations of 0.1%, 1.0% or 10% (volume/volume). A second set of reactions was treated with urea at final concentrations of 1 mM, 10 mM, or 1M. A third set of reactions was treated with a control solution containing only buffer. All three sets of ferritin solutions were incubated further for 17-20 hours (i.e., overnight) at 4° C., then returned to room temperature. Iron release was initiated by the addition of 2.5 mM bipyridine, 2.5 mM NADH, and 2.5 mM FMN (final concentrations). The amount of iron released from ferritin was monitored at room temperature, over a period of one hour, by appearance of absorbance at 522 nm due to formation of the Fe(II)-bipyridyl complex.
Urea, Guanidine HCl, and Triton X-100. The effects on iron release from ferritin of urea, guanidine hydrochloride, and Triton X-100 were studied by mixing solutions of the mineralized protein with a protein unfolding reagent and incubating at room temperature for 1 hour, followed by incubating overnight at 4° C. before adding reductant and chelator. […]

HeLa cells = assay: Cell viability by trypan blue exclusion test
Experimental: HeLa cells, cultured in DMEM medium with 10% FBS, were incubated with the protein unfolding agents for 24 hours at 37° C. in 12-well plates. Cells were treated with trypsin, fresh medium was added and the cells were suspended in the fresh DMEM medium with 10% FBS. Cell suspensions were mixed 1:4 with trypan blue in 0.85% NaCl (weight/volume), incubated 5 minutes at room temperature, then examined by light microscopy in a hemocytometer chamber. Blue cells are scored as non-viable. For each condition, 1-3 analyses were performed.

ferritin [2] = target: T1, ferritin; assay: Subdomain unfolding of ferritin by circular dichroism (helix/coil transition); parameters: species or system bullfrog
Experimental: The effects of protein unfolding agents on subdomain unfolding of ferritin were monitored as changes in the Circular Dichroism (CD) spectra. Both wild type ferritin (H-WT) and the open pore mutant H-L134P were analyzed. Solutions of mineralized protein (2.08×10^−1 μM in 10 mM MOPS buffer, pH 7.0), were incubated with or without 1 mM urea overnight as described herein, and equilibrated for 10 minutes at the selected temperature before recording spectra between 300 nm to 200 nm. CD spectra recorded on a Pi-180 spectrophotometer (Applied Photophysics, Surrey, UK) over the temperature range of 5° C. to 65° C. Spectra were recorded in a cuvette with a 1 cm path length at protein concentrations of 2×10^−7 M, except for H-L134P, the protein with fully open pores in protein crystals, where the concentration was 4×10^−7 M to compensate for the lower signal at higher temperatures. Contributions of the solvent to the protein spectra were subtracted. Molar ellipticities at 220 nm were determined from the optical rotation, and the percent alpha helix content was calculated as described by Frére et al (Frere, V., Sourgen, F., Monnot, M., Troalen, F. & Fermandjian, S. (1995) J Biol Chem 270, 17502-17507) and Zhong and Johnson (Zhong, L. & Johnson, W. C. J. (1992) Proc Natl Acad Sci USA 89, 4462-4465). Curves were fit to the data using Sigmaplot 8.0. Fits and data matched with P<0.001. Data presented for H-L 134P ferritin are representative of two sets of measurements on one preparation and the data for the H-wild type protein, with and without urea, are representative of 3 independent protein preparations.

ferritin [3] = target: T1, ferritin; assay: Fe uptake and mineralization / Fe(II) oxidation at the ferroxidase site (A650); format: biochemical, bullfrog
Experimental: The temperature of the helix coil/transition in the pore was lower in both H-L134P protein and the wild type protein +1 mM urea (FIG. 3B) and is in the physiological range. […] However, the stability of the partially unfolded H-L 134P protein was lower, and loss of helix continued between 45° C. and 65° C. […] Rates were 1.9±0.1×10^−3, 2.93±0.1×10^−3 and 4.68±0.06×10^−3 mmoles/second for H-WT ferritin+1 mM urea, H-L134P ferritin and Wild Type H ferritin+1M urea, respectively (FIGS. 2A, B). The local nature of the helix/coil transition induced by 1 mM urea observed between 35° C. and 50° C. (FIG. 3B), is emphasized by the small effects on other ferritin functions such as Fe uptake and mineralization where the rates were 0.67±0.01 and 0.57±0.01 ΔA650s^−1 for zero and 10 mM urea, respectively, for 480 Fe/protein.

ferritin [4] = target: T1, ferritin; assay: Iron release from ferritin with Desferal substituted for bipyridyl, Fe(III)-Desferal complex monitored at 430 nm; format: biochemical; conditions: H-Wild Type ferritin, in the absence of urea
Description: Desferal® (desferrioxamine mesylate or DFO), a chelator of Fe(III), is currently the drug of choice to remove Fe from patients with excess tissue iron accumulated from monthly transfusions to treat betaglobin gene mutations (Sickle Cell Disease and Beta Thalassemia). Positive selection has made the mutations relatively common (<10%) in areas of the world where malaria is endemic. […] In order to determine if unfolding ferritin pores increased Desferal® chelation of ferritin Fe, the chelator was substituted for bipyridyl in the mixture of NADH/FMN usually used. Formation of the Fe(III)— Desferal® complex was monitored at 430 nm, the absorbance maximum under the conditions used.

ferritin [5] = conditions: Crichton et al. 1980; cited from earlier work
[6] = 1M NaCl, MOPS buffer (data not shown)
[7] = 1.0 mM to 1 M urea or guanidine

Molecule: [Cl-].[Na+] [NaCl, Sodium chloride, reference compound]
- initial rate of Fe(II)-bipyridyl formation (ferritin [1]; [6]): decreased
- total amount of Fe chelated (ferritin [1]; [6]): decreased

Molecule: Cl.N=C(N)N [guanidine, guanidine hydrochloride]
- effect on formation rate of Fe(II)-bipyridyl (ferritin [1]; Gd.HCl at 0.1 mM): increased rates significantly
- effect on ferritin iron release (formation rate of Fe(II)-bipyridyl) (ferritin [1]; Gd.HCl at 1 and 10 mM): comparable to the effect of 1 and 10 mM urea
- Average % nonviable cells (HeLa cells; 1 mM, 24 hours at 37° C.): 6%
- cell viability versus cells in normal medium (HeLa cells; indicated concentrations (1 mM)): No significant difference

Molecule: Triton X-100
- most effective concentration (ferritin [1]; Triton X-100, enhancement of iron release): 1.0-10 % (volume/volume)
- effect on ferritin iron release (formation rate of Fe(II)-bipyridyl) (ferritin [1]; Triton X-100 at 1% and 10%): comparable to the effect of 1 and 10 mM urea
- increase in the initial rate of iron release (ferritin [1]): 2-3 fold
- toxicity to cells (HeLa cells; 1.0% and 10% (data not shown)): toxic

Molecule: NC(N)=O [urea]
- time for removal of >95% of the Fe (ferritin [1]; 1 mM urea): 33 min
- time for removal of >95% of the Fe (ferritin [1]; 10 mM urea): 13 min
- increase over the initial rate without urea (ferritin [1]; 1 M urea): 4.81 fold
- time for removal of >95% of the Fe (ferritin [1]; 1 M urea): 4 min
- initial rate of Fe(II) bipyridyl formation (ferritin [1]; 2 M urea): 1.02±0.11×10^−3 mmoles/second
- time for removal of >95% of the Fe (ferritin [1]; 2 M urea): 20 min
- initial rate of Fe(II) bipyridyl formation (ferritin [1]; H-WT ferritin, 1 mM urea): 1.90±0.11×10^−3 mmole/second and 1.9±0.1×10^−3 mmole/second
- initial rate of Fe(II) bipyridyl formation (ferritin [1]; H-WT ferritin, 1 M urea): 4.68±0.06×10^−3 mmoles/second
- decrease in the time to release 50% of the total iron in ferritin (ferritin [1]; chelator 2,2′-bipyridine, absorbance at 522 nm=0.4): 10 fold
- increase in the initial rate of iron release (ferritin [1]): 2-4 fold
- most effective concentrations (ferritin [1]; urea, enhancement of iron release): 1 to 1000 mM
- Fe(II)-bipyridyl formation in the absence of FMN/NADH (ferritin [1]; urea-treated protein, no reductant): No Fe(II)-bipyridyl formed
- downshift of a helix/coil transition (ferritin [2]; [7]): 10 °C
- helix/coil transition temperature after downshift (ferritin [2]; [7]): 43 °C
- Tm (midpoint) of decrease in helix structure (ferritin [2]; WT ferritin, 1 mM urea): 41 °C
- helix loss (ferritin [2]; WT ferritin, 1 mM urea): ~10%
- increase of transition temperature in the absence of urea versus 1 mM urea (ferritin [2]; wild type ferritin): 12 °C
- rate of Fe uptake and mineralization (ferritin [3]; 10 mM urea, 480 Fe/protein): 0.57±0.01 ΔA650s^−1
- Fe(II) oxidation, a measure of Fe(II) entry and binding to the ferroxidase site (ferritin [3]; urea-treated ferritin): slightly inhibited

Molecule: CC(=O)N(O)CCCCCNC(=O)CCC(=O)N(O)CCCCCNC(=O)CCC(=O)N(O)CCCCCN [Desferal®, desferrioxamine mesylate]
- Fe that could be chelated (ferritin [4]): 10%
- Fe removal from ferritin in solution (ferritin [5]): removes little Fe
